These results are taken from patent US11407740B2 (priority 2018, dated 2022).

This experiment relates to E. coli. Description: Bacterial susceptibility testing, MIC by broth microdilution (CLSI). The following applies: for MIC: Escherichia coli, read-out: E. coli MIC, broth microdilution, 35° C., 18-24 h; for E. coli MIC: broth microdilution, 35° C., 18-24 h. A general note: In broth dilution the organism is exposed to a series of concentrations in liquid medium.

Values after ≈ are worked out from the molar mass of the structure shown.

As for `O=c1[nH]cnc(C[C@H](CO)c2ccc(C#Cc3ccc(CN(CCO)[C@@H]4CCOC4)cc3)cc2)c1O` (single isomer, unassigned) [Compound 269], the MIC was 1 to 8 µg/mL (≈ 2.04 to 16.3 µM).

In the case of `O=c1[nH]cnc(CC(CN[C@H]2CCOC2)c2ccc(C#Cc3ccc(CN4CCOCC4)cc3)cc2)c1O` (mixture of isomers) [Compound 166], the MIC is less than 1 µg/mL.

With `COC1CN(Cc2ccc(C#Cc3ccc([C@@H](CO)Cc4nc[nH]c(=O)c4O)cc3)cc2)C1` (single isomer, unassigned) [Compound 217], the MIC is less than 1 µg/mL.

In the case of `O=c1[nH]cnc(CC(CN[C@@H]2CCOC2)c2ccc(C#Cc3ccc(CN4CCOCC4)cc3)cc2)c1O` (single isomer, unassigned) [Compound 162], the MIC lay within 1 to 8 µg/mL (≈ 1.94 to 15.5 µM).

Turning to `O=c1[nH]cnc(CC(CN[C@H]2C[C@H](F)C2)c2ccc(C#Cc3ccc(CN4CCOCC4)cc3)cc2)c1O` (some centres unmarked) [Compound 80], the “E. coli MIC” value is “A (A: ≤1 μg/mL)”.

Consider `CS(=O)(=O)N[C@@H](Cc1nc[nH]c(=O)c1O)c1ccc(C#Cc2ccc(CN3CCNC[C@H]3CO)cc2)cc1` (single isomer, unassigned) [Compound 297], for which the MIC is 8 to 32 µg/mL (≈ 14.9 to 59.5 µM).

With `O=c1[nH]cnc(CC(CO)c2ccc(C#Cc3ccc(CCN[C@H]4CCOC4)cc3)cc2)c1O` (mixture of isomers) [Compound 43], the MIC is less than 1 µg/mL.

As to `NCC(=O)N1CCC(C#Cc2ccc(C(CO)Cc3nc[nH]c(=O)c3O)cc2)CC1` (centres unmarked) [Compound 263], the MIC was greater than 32 µg/mL.

`CN(Cc1ccc(C#Cc2ccc(C(CO)Cc3nc[nH]c(=O)c3O)cc2)cc1)[C@@H]1CCNC1` (mixture of isomers) [Compound 260]: the MIC was in the range of 1 to 8 µg/mL.

As to `NC[C@H]1CCCN1Cc1ccc(C#Cc2ccc(C(CO)Cc3nc[nH]c(=O)c3O)cc2)cc1` (mixture of isomers) [Compound 148], the MIC is 1 to 8 µg/mL.

With `C[C@H](CF)NCC(Cc1nc[nH]c(=O)c1O)c1ccc(C#Cc2ccc(CN3CC(C#N)C3)cc2)cc1` (some centres unmarked) [Compound 83], the MIC was less than 1 µg/mL.

Regarding `O=c1[nH]cnc(CC(CN2CCC2)c2ccc(C#Cc3ccc(CN4CCOCC4)cc3)cc2)c1O` (centres unmarked) [Compound 177], the MIC is less than 1 µg/mL.

On to `C[C@@H](CO)NCC(Cc1nc[nH]c(=O)c1O)c1ccc(C#Cc2ccc(CN3CCOCC3)cc2)cc1` (mixture of isomers) [Compound 167], for which the MIC was less than 1 µg/mL.

Take `CC(F)CNCC(Cc1nc[nH]c(=O)c1O)c1ccc(C#Cc2ccc(CN3CCOCC3)cc2)cc1` (centres unmarked) [Compound 74]: the MIC was less than 1 µg/mL.

As for `O=c1[nH]cnc(C[C@H](CNCC(F)F)c2ccc(C#Cc3ccc(CN4CCOCC4)cc3)cc2F)c1O` (single isomer, unassigned) [Compound 283], the MIC is less than 1 µg/mL.

Regarding `O=c1[nH]cnc(CC(CO)c2ccc(C#Cc3ccc(CN4CCOCC4)cc3)cn2)c1O` (centres unmarked) [Compound 196], the MIC fell in the range of 1 to 8 µg/mL (≈ 2.24 to 17.9 µM).

Turning to `CO[C@H]1CCN(Cc2ccc(C#Cc3ccc(C(CN[C@@H](C)CF)Cc4nc[nH]c(=O)c4O)cc3)cc2)C1` (mixture of isomers) [Compound 89], the MIC is less than 1 µg/mL.

Turning to `C[C@@H](CF)NCC(Cc1nc[nH]c(=O)c1O)c1ccc(C#Cc2ccc(CN3CC4(COC4)C3)cc2)cc1` (mixture of isomers) [Compound 124], the MIC was in the range of 1 to 8 µg/mL.

Turning to `CNC(Cc1nc[nH]c(=O)c1O)c1ccc(C#Cc2ccc(CN[C@@H]3CCOC3)cc2)cc1` (mixture of isomers) [Compound 265], the MIC is less than 1 µg/mL.

Consider `C[C@H](CF)NCC(Cc1nc[nH]c(=O)c1O)c1ccc(C#Cc2ccc(CN3CCOCC3)cc2)cc1F` (single isomer, unassigned) [Compound 280], for which the minimum inhibitory concentration (MIC) is less than 1 µg/mL.

Regarding `COC1CN(Cc2ccc(C#Cc3ccc(C(CN[C@H](C)CF)Cc4nc[nH]c(=O)c4O)cc3)cc2)C1` (single isomer, unassigned) [Compound 69], the MIC is less than 1 µg/mL.

Turning to `C[C@@H](CF)NCC(Cc1nc[nH]c(=O)c1O)c1ccc(C#Cc2ccc(CNC3COC3)cc2)cc1` (mixture of isomers) [Compound 94], the MIC was less than 1 µg/mL.

On to `O=c1[nH]cnc(C[C@H](CN2CC(O)C2)c2ccc(C#Cc3ccc(CN4CCOCC4)c(F)c3)cc2)c1O` (single isomer, unassigned) [Compound 276], for which the MIC was 1 to 8 µg/mL (≈ 1.93 to 15.4 µM).

As for `O=c1[nH]cnc(C[C@H](CNCC(F)F)c2ccc(C#Cc3ccc(CN4CCOCC4)cc3)cc2)c1O` (single isomer, unassigned) [Compound 117], the MIC was less than 1 µg/mL.

`O=c1[nH]cnc(C[C@H](CO)c2ccc(C#Cc3ccc(CN(CCO)[C@H]4CCOC4)cc3)cc2)c1O` (single isomer, unassigned) [Compound 243]: the MIC was less than 1 µg/mL.

Regarding `O=c1[nH]cnc(C[C@H](CO)c2ccc(C#C[C@H]3CC[C@H](CN4CCOCC4)CC3)cc2)c1O` [Compound 204], the MIC was in the range of 8 to 32 µg/mL (≈ 17.7 to 70.9 µM).

For `COC[C@@H](Cc1nc[nH]c(=O)c1O)c1ccc(C#Cc2ccc(CN[C@H]3CCOC3)cc2)cc1` (single isomer, unassigned) [Compound 285], the MIC was less than 1 µg/mL.

Turning to `O=c1[nH]cnc(CC(CO)c2ccc(C#Cc3ccc(CN4CC(N5CCOCC5)C4)cc3)cc2)c1O` (centres unmarked) [Compound 51], the MIC is 1 to 8 µg/mL (≈ 2 to 16 µM).

Take `O=c1[nH]cnc(CC(NCCCF)c2ccc(C#Cc3ccc(CN4CCOCC4)cc3)cc2)c1O` (centres unmarked) [Compound 139]: the MIC is less than 1 µg/mL.

`COC1CCN(Cc2ccc(C#Cc3ccc(C(N)Cc4nc[nH]c(=O)c4O)cc3)cc2)CC1` (centres unmarked) [Compound 174]: the MIC was less than 1 µg/mL.

For `O=c1[nH]cnc(CC(CN2CC(O)C2)c2ccc(C#Cc3ccc(CN4CCOCC4)cc3)cc2F)c1O` (centres unmarked) [Compound 231], the MIC is less than 1 µg/mL.

Consider `O=c1[nH]cnc(C[C@@H](CN2CC(F)C2)c2ccc(C#Cc3ccc(CN4CCOCC4)cc3)cc2)c1O` (single isomer, unassigned) [Compound 215], for which the minimal inhibitory concentration (MIC) is less than 1 µg/mL.

Consider `O=c1[nH]cnc(CC(CO)c2ccc(/C=C/c3ccc(CN[C@H]4CCOC4)cc3)cc2)c1O` (mixture of isomers) [Compound 198], for which the MIC was 8 to 32 µg/mL.

`COC[C@@H](Cc1nc[nH]c(=O)c1O)c1ccc(C#Cc2ccc(CN[C@H]3CCNC3)cc2)cc1` (single isomer, unassigned) [Compound 287]: the MIC lay in the range of 1 to 8 µg/mL (≈ 2.18 to 17.4 µM).

With `C[C@@H](CO)NCC(Cc1nc[nH]c(=O)c1O)c1ccc(C#Cc2ccc(CN3CCOCC3)cc2)cc1` (single isomer, unassigned) [Compound 168], the “E. coli MIC” value was “B (B: >1 μg/mL to ≤8.0 μg/mL)”.

For the compound `O=c1[nH]cnc(CC(CO)c2ccc(C#Cc3ccc(CN4CCOCC4)cc3)cc2)c1O` (centres unmarked) [Compound 2], the MIC is less than 1 µg/mL.

Turning to `O=c1[nH]cnc(CC(CNC2CC(F)(F)C2)c2ccc(C#Cc3ccc(CN4CCOCC4)cc3)cc2)c1O` (centres unmarked) [Compound 113], the “E. coli MIC” value was “B (B: >1 μg/mL to ≤8.0 μg/mL)”.

With `N#CC1CN(Cc2ccc(C#Cc3ccc([C@@H](CNCC(F)F)Cc4nc[nH]c(=O)c4O)c(F)c3)cc2)C1` (single isomer, unassigned) [Compound 279], the MIC was less than 1 µg/mL.

Consider `O=c1[nH]cnc(CC(CNCc2ccn[nH]2)c2ccc(C#Cc3ccc(CN4CCOCC4)cc3)cc2)c1O` (centres unmarked) [Compound 184], for which the MIC is 1 to 8 µg/mL (≈ 1.91 to 15.2 µM).

As to `O=c1[nH]cnc(CC(CN[C@H]2C[C@H](F)C2)c2ccc(C#Cc3ccc(CN4CCOCC4)cc3)cc2)c1O` (some centres unmarked) [Compound 78], the MIC lay within 1 to 8 µg/mL (≈ 1.94 to 15.5 µM).

With `CC(=O)N1CC[C@@H](NCc2ccc(C#Cc3ccc(C(CO)Cc4nc[nH]c(=O)c4O)cc3)cc2)C1` (mixture of isomers) [Compound 232], the MIC is less than 1 µg/mL.

Usually MIC stands for the lowest concentration found to suppress growth.
